Experiments:
Type in all cases: in vivo
[1] = system: heat stressed lactating dairy cattle in a post-peak phase of lactation; test: Example 1: feeding about 100 grams of sorbitol per day to heat stressed lactating dairy cattle in post-peak phase, with and without evaporative cooling
From the text: In the Examples below, statistical analysis was completed for parameters studied such as milk yield, energy corrected milk (ECM), fat corrected milk (FCM), and dry matter intake. A P value of 0.10 means that 10 times out of 100 the results can be explained by factors other than the feeding of sorbitol versus the lack of sorbitol feeding. Likewise, a P value of 0.75 means that 75 times out of 100, the difference in value between the control group and the sorbitol-fed group may be explained by factors other than the feeding of the increased rate(s) of supplemental feed versus the lower rate of feeding of the supplemental feed (e.g., 4 pounds per head per day). For purposes of comparing data in this document, P values of 0.15, or lower, are considered statistically significant. Thus, where a P value of 0.15 or less is returned for particular results, it is assumed that the differing results may be explained by the test regimen, i.e.: the feeding of the increased rate(s) of supplemental feed versus the lower rate of feeding of the supplemental feed (e.g., 4 pounds per head per day). […] In this example, 32 multiparous cows were blocked by production and days in milk into one of two diets, a control diet without sorbitol and a diet with sorbitol, and each treatment group was divided into two cooling treatments. The four treatment groups included 1) a control diet with fans and no mist; 2) a sorbitol-supplemented diet with fans and no mist; 3) a control diet with fans and mist; and 4) a sorbitol-supplemented diet with fans and mist. During the study, the ambient temperature was between 70 degrees and 85 degrees during 51 percent of study and was greater than 85 degrees during 13 percent of the study. Heat stress in the dairy cattle was observed through changes in performance as well as increased respiration rates. Dairy cattle performance and respiration rates for the dairy cattle not receiving mister cooling is compared to dairy cattle receiving mist treatment in Table 1. The sorbitol in the sorbitol-supplemented diets was processed as an extruded pellet and added to other grain concentrates prior to final addition and delivery to the ruminant. [table] [table]

[2] = system: dairy cattle in mid-lactation; test: Example 3: feeding sorbitol at about 100 grams per day to dairy cattle in mid-lactation, with and without misters; conditions: for 3.5% FCM / Body Weight / Daily Milk Yield / Dry Matter Intake / ECM / Milk Fat / Milk Protein: about 100 g/day
From the text: 64 dairy cattle were separated into four pens of 16 dairy cattle each pen was provided one of the four treatments described above in connection with Example 1. The treatment groups receiving sorbitol in the diet were provided 1 pound of premix per day during a ten week testing period. During the study, the temperature was between 70 degrees and 85 degrees during […] of study and was greater than 85 degrees during 25 percent of the study. […] [table] [table]

[3] = system: heat stressed transition dairy cattle; test: Example 2: feeding sorbitol to heat stressed transition dairy cattle (about 150 g/d prior to calving, about 125 g/d after), with and without evaporative cooling
From the text: In this example, the dairy cattle were blocked in the same manner as Example 1. During the study, the ambient temperature was between 70 degrees and 85 degrees during 62 percent of study and was greater than 85 degrees during 18 percent of the study.
After 30 days in milk, all postfresh cows were fed a common diet until 60 days post partum. The nutrient analysis of the total mixed rations for the control and sorbitol diets provided during the study are shown in Table 5C:
As provided in FIGS. 5A and 5B, sorbitol was provided in a base mix at a rate of 1.5 pounds per day for prefresh dairy cattle (e.g., for 28 days prior to calving) and at a rate of 1.25 pounds per day for post fresh dairy cattle (e.g., for 30 days post-calving).
From day 30 to day 60, all dairy cattle study groups received the same diet free of sorbitol (see Table 5).

[4] = about 100 g sorbitol/day, post-peak, pooled across cooling strategies and day
[5] = sorbitol without mister treatment
[6] = day 0 to 30 postpartum, Misters
[7] = day 0 to 30 postpartum, No Misters
[8] = day 0 to 60 postpartum (sorbitol-free common diet from day 30), Misters
[9] = day 0 to 60 postpartum (sorbitol-free common diet from day 30), No Misters

OC[C@@H](O)[C@@H](O)[C@H](O)[C@@H](O)CO [Sorbitol, sorbitol]
DMI [1, 4]: 24.7 kg/day | Daily Milk [1, 4]: 39.4 kg/day | ECM [1, 4]: 37.2 kg/day | FCM [1, 4]: 36.8 kg/day | Fat [1, 4]: 1.23 kg/day | Fat, % [1, 4]: 3.16% | Milk to Feed [1, 4]: 1.60 | Protein [1, 4]: 1.12 kg/day | Protein, % [1, 4]: 2.87% | Respiration rates [1, 4]: 63.0 | performance: daily milk, ECM, FCM (FIG. 1) ([1]; sorbitol and mister treatment): best overall performance in comparison to all other groups studied | milk-to-feed ratio (FIG. 3) ([1]; sorbitol group with mister treatment): 1.64 kg of milk for every kg of dry matter consumed | milk-to-feed ratio (FIG. 3) ([1]; sorbitol group without mister treatment): 1.55 kg of milk for every kg of dry matter consumed | difference in ECM ([1]; sorbitol group without mister treatment vs control group with misters): 0.3 kg/day | FCM results vs control ([1]; sorbitol with and without mister treatment): performed better than the control group with mister treatment and significantly better than the control group without mister treatment | variation of dry matter intake between the two sorbitol groups ([1]; sorbitol with vs without misters): 0.4 kg/day | ECM results vs control [1, 5]: performed significantly better than the control group without sorbitol and mister treatment | performance: daily milk, ECM, FCM (FIG. 1) [1, 5]: performed better than the control group without misters in all performance areas | daily dry matter intake (FIG. 2) ([1]; the other groups (both sorbitol groups and control without misters) vs 28 for control with misters): 25 kg/day | 3.5% FCM ([2]; Misters): 66.7 lbs/d | Body Weight ([2]; Misters): 1373 lbs | Daily Milk Yield ([2]; Misters): 73.7 lbs/d | Dry Matter Intake ([2]; Misters): 49.4 lbs/d | ECM ([2]; Misters): 68.1 lbs/d | Milk Fat ([2]; Misters): 2.92% | Milk Protein ([2]; Misters): 2.92% | 3.5% FCM ([2]; No Misters): 66.0 lbs/d | Body Weight ([2]; No Misters): 1393 lbs | Daily Milk Yield ([2]; No Misters): 71.9 lbs/d | Dry Matter Intake ([2]; No Misters): 51.2 lbs/d | ECM ([2]; No Misters): 67.3 lbs/d | Milk Fat ([2]; No Misters): 3.03% | Milk Protein ([2]; No Misters): 2.92% | increase in milk yield compared to the control group without mister treatment ([2]; sorbitol and mister treatment): about 3.5 pounds per day | increase in milk yield compared to the control group without mister treatment [2, 5]: about 1.7 pounds per day | Body Weight, post [3, 6]: 1259 lbs | DMI as % BW [3, 6]: 3.05% | Daily Milk Yield [3, 6]: 78.7 lbs/d | Dry Matter Intake [3, 6]: 37.8 lbs/d | ECM [3, 6]: 80.2 lbs/d | FCM [3, 6]: 80.7 lbs/d | Milk Fat [3, 6]: 3.53% | Milk Protein [3, 6]: 2.81% | Milk-to-Feed Ratio [3, 6]: 2.08 | Body Weight, post [3, 7]: 1232 lbs | DMI as % BW [3, 7]: 3.03% | Daily Milk Yield [3, 7]: 74.4 lbs/d | Dry Matter Intake [3, 7]: 36.8 lbs/d | ECM [3, 7]: 75.2 lbs/d | FCM [3, 7]: 75.5 lbs/d | Milk Fat [3, 7]: 3.42% | Milk Protein [3, 7]: 2.81% | Milk-to-Feed Ratio [3, 7]: 2.05 | increase in milk yield compared to the control group without mister treatment ([3]; day 0 to 30 postpartum, sorbitol and mister treatment): about 11.5 pounds per day | increase in milk yield compared to the control group without mister treatment ([3]; day 0 to 30 postpartum, sorbitol without mister treatment): about 7.2 pounds per day | Body Weight, post [3, 8]: 1261 lbs | DMI as % BW [3, 8]: 3.45% | Daily Milk Yield [3, 8]: 84.3 lbs/d | Dry Matter Intake [3, 8]: 42.9 lbs/d | ECM [3, 8]: 79.8 lbs/d | FCM [3, 8]: 80.4 lbs/d | Milk - to - Feed [3, 8]: 2.00 | Milk Fat [3, 8]: 3.17% | Milk Protein [3, 8]: 2.66% | Milk - to - Feed ([3]; day 0 to 60 postpartum (sorbitol-free common diet from day 30), Misters, listed as sorbitol): 2.0 | Body Weight, post [3, 9]: 1231 lbs | DMI as % BW [3, 9]: 3.32% | Daily Milk Yield [3, 9]: 81.2 lbs/d | Dry Matter Intake [3, 9]: 41.1 lbs/d | ECM [3, 9]: 77.3 lbs/d | FCM [3, 9]: 77.7 lbs/d | Milk - to - Feed [3, 9]: 1.97 | Milk Fat [3, 9]: 3.12% | Milk Protein [3, 9]: 2.66% | increase in milk yield compared to the control group without mister treatment ([3]; day 0 to 60 postpartum, sorbitol and mister treatment): about 11.3 pounds per day | increase in milk yield compared to the control group without mister treatment ([3]; day 0 to 60 postpartum, sorbitol without mister treatment): about 8.2 pounds per day | beta hydroxy butyrate (BHBA) levels (FIG. 4) ([3]; transition phase, sorbitol groups vs control without misters): control group without mister treatment experienced a spike in BHBA levels compared to the sorbitol groups

— patent US11666541B2, “Systems and methods for feeding sugar alcohol to ruminants during periods of heat stress” (PURINA ANIMAL NUTRITION LLC, priority 2012, dated 2023)
